Results from PubChem BioAssay AID248 (DTP/NCI, 2004).
Toxic doses and inconclusive results are not listed. Rule as the data show it: active = T/C of 150% or more; inactive = T/C below 125%.

Tested on: L1210 leukemia ip in BDF1 mice, survival T/C
Experiment: NCI In Vivo Anticancer Drug Screen. Data for tumor model L1210 Leukemia (intraperitoneal) in B6D2F1 (BDF1) mice
Details: endpoint: mean survival time, higher = longer survival
How it was run: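 Value reflects the ratio of survival in compound-treated mice to survival in vehicle-treated controls, with both groups carrying the same transplanted tumor.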

[1] = dose: 100.0 mg/kg/injection, schedule: Q04DX002 (ip), vehicle: saline
[2] = dose: 200.0 mg/kg/injection, schedule: Q04DX002 (ip), vehicle: saline
[3] = dose: 400.0 mg/kg/injection, schedule: Q04DX002 (ip), vehicle: saline
[4] = dose: 100.0 mg/kg/injection, schedule: Q04DX002 (ip), vehicle: Klucel (hydroxypropylcellulose) (HPC)
[5] = dose: 200.0 mg/kg/injection, schedule: Q04DX002 (ip), vehicle: Klucel (hydroxypropylcellulose) (HPC)
[6] = dose: 400.0 mg/kg/injection, schedule: Q04DX002 (ip), vehicle: Klucel (hydroxypropylcellulose) (HPC)
[7] = dose: 100.0 mg/kg/injection, schedule: Q04DX003 (ip), vehicle: Klucel (hydroxypropylcellulose) (HPC)
[8] = dose: 100.0 mg/kg/injection, schedule: Q01DX009 (ip), vehicle: Klucel (hydroxypropylcellulose) (HPC)

Measured: T/C

CC1CC(OC(=O)CCN2CC2)CC(C)(C)C1 (centres undefined)
inactive: dose: 2.5 mg/kg/injection, schedule: Q01DX009 (ip), vehicle: Klucel (hydroxypropylcellulose) (HPC) 98 % of control | dose: 5.0 mg/kg/injection, schedule: Q01DX009 (ip), vehicle: Klucel (hydroxypropylcellulose) (HPC) 101 % of control | dose: 20.0 mg/kg/injection, schedule: Q01DX009 (ip), vehicle: Klucel (hydroxypropylcellulose) (HPC) 113 % of control | dose: 20.0 mg/kg/injection, schedule: Q04DX003 (ip), vehicle: Klucel (hydroxypropylcellulose) (HPC) 101 % of control | dose: 40.0 mg/kg/injection, schedule: Q01DX009 (ip), vehicle: Klucel (hydroxypropylcellulose) (HPC) 107 % of control | dose: 40.0 mg/kg/injection, schedule: Q04DX003 (ip), vehicle: Klucel (hydroxypropylcellulose) (HPC) 97 % of control | dose: 80.0 mg/kg/injection, schedule: Q04DX003 (ip), vehicle: Klucel (hydroxypropylcellulose) (HPC) 106 % of control

CCOCCOCCOC(C)Oc1ccc(C(C)C)cc1 (centres undefined)
inactive: [1] 93 % of control | [2] 104 % of control | [3] 101 % of control

CNC(=O)Nc1ccc(C(=O)O)cc1
inactive: [4] 102 % of control | [5] 95 % of control | [6] 95 % of control

O=C(O)C#Cc1ccccc1
inactive: dose: 25.0 mg/kg/injection, schedule: Q04DX003 (ip), vehicle: Klucel (hydroxypropylcellulose) (HPC) 107 % of control | dose: 50.0 mg/kg/injection, schedule: Q04DX003 (ip), vehicle: Klucel (hydroxypropylcellulose) (HPC) 98 % of control | dose: 100.0 mg/kg/injection, schedule: Q01DX001 (ip), vehicle: saline 100 % of control | [7] 96 % of control

O=C(Nc1cccc(Cl)c1Cl)C(Cl)(Cl)Cl
inactive: [4] 100 % of control | [5] 104 % of control | [6] 88 % of control

CCC(=O)Oc1ccccc1C(=O)O
inactive: dose: 25.0 mg/kg/injection, schedule: Q01DX009 (ip), vehicle: Klucel (hydroxypropylcellulose) (HPC) 98 % of control | dose: 50.0 mg/kg/injection, schedule: Q01DX009 (ip), vehicle: Klucel (hydroxypropylcellulose) (HPC) 98 % of control | [8] 103 % of control

CCCCCSP(SCCCCC)c1ccccc1
inactive: [8] 92 % of control | dose: 200.0 mg/kg/injection, schedule: Q01DX009 (ip), vehicle: Klucel (hydroxypropylcellulose) (HPC) 94 % of control

Cc1ccc2c(c1)=N/C(=N\c1nc(O)c(O)[nH]1)N=2
inactive: dose: 100.0 mg/kg/injection, schedule: Q04DX003 (ip), vehicle: saline with Tween-80 97 % of control | dose: 200.0 mg/kg/injection, schedule: Q04DX003 (ip), vehicle: saline with Tween-80 108 % of control | dose: 400.0 mg/kg/injection, schedule: Q04DX003 (ip), vehicle: saline with Tween-80 103 % of control

O=[N+]([O-])c1ccc2c(c1)-c1ccccc1C2Br (centres undefined)
inactive: dose: 100.0 mg/kg/injection, schedule: Q01DX005 (ip), vehicle: Klucel (hydroxypropylcellulose) (HPC) 88 % of control | [4] 117 % of control | [5] 101 % of control | dose: 400.0 mg/kg/injection, schedule: Q01DX005 (ip), vehicle: Klucel (hydroxypropylcellulose) (HPC) 102 % of control | [6] 90 % of control

CC1(C)C2CCC1(C)C(c1ccc(O)cc1)C2 (centres undefined)
inactive: [7] 104 % of control | dose: 200.0 mg/kg/injection, schedule: Q04DX003 (ip), vehicle: Klucel (hydroxypropylcellulose) (HPC) 101 % of control | dose: 400.0 mg/kg/injection, schedule: Q04DX003 (ip), vehicle: Klucel (hydroxypropylcellulose) (HPC) 102 % of control

COc1ccc(OC)c(NC(=O)Oc2ccc3ccccc3c2)c1
inactive: [1] 93 % of control | [2] 101 % of control | [3] 96 % of control

CCN(CC)CCCC(C)Nc1ccc(O)c2c1C(=O)c1ccccc1C2=O (centres undefined)
inactive: dose: 25.0 mg/kg/injection, schedule: Q01DX009 (ip), vehicle: saline 100 % of control | dose: 50.0 mg/kg/injection, schedule: Q01DX009 (ip), vehicle: saline 93 % of control | dose: 100.0 mg/kg/injection, schedule: Q01DX009 (ip), vehicle: saline 104 % of control | [1] 100 % of control | [2] 102 % of control
